Measurements: US20250129430A1, “HIGH ATP-AFFINITY PROTEIN AS THERAPEUTIC TARGET FOR INTRACTABLE CANCER MOLECULAR SUBTYPES AND INHIBITOR THEREOF” (VeraVerse Co., Ltd., priority 2021, published 2025)

Assays:
Test in all cases: Cell viability drug screen, 12-point dose-response AUC
Format in all cases: cell-based, human
NCC19 = NCC19 cells, 72 hours
In short: (§1)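 AUC values represent the area under DMSO-normalized 12-point curves, computed by trapezoid rule and averaged over repeated experiments. Each EMT-type gastric line was exposed to half-log serial concentrations for 72 h at 37 °C, and viability was measured with a Glo luminescence kit.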

SNU620 = SNU620 cells, 72 hours
In short: as §1

NCC20 = NCC20 cells, 72 hours
In short: as §1

SNU16 = SNU16 cells, 72 hours
In short: as §1

AGS = settings: 72 hours
In short: (§2)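 Dose-response AUC reflects 72 h drug exposure of gastric cancer cells in a 12-point, half-log format, with viability read by luminescence and normalized to DMSO (0.5%).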

NCI_N87 = NCI_N87 cells, 72 hours
In short: as §1

MKN74 = MKN74 cells, 72 hours
In short: as §2

SNU601 = SNU601 cells, 72 hours
In short: as §1

MKN1 = MKN1 cells, 72 hours
In short: as §1

MKN28 = MKN28 cells, 72 hours
In short: as §1

YCC11 = settings: 72 hours
In short: as §1

SK4 = settings: 72 hours
In short: as §1

SNU638 = SNU638 cells, 72 hours
In short: as §1

YCC3 = YCC3 cells, 72 hours
In short: as §1

SNU216 = settings: 72 hours
In short: as §2

SNU1967 = SNU1967 cells, 72 hours
In short: as §1

NCC59 = NCC59 cells, 72 hours
In short: as §1

SNU1 = SNU1 cells, 72 hours
In short: as §1

OCUM1 = OCUM1 cells, 72 hours
In short: as §1

SNU719 = SNU719 cells, 72 hours
In short: as §2

Hs746T = settings: 72 hours
In short: as §1

KATO3 = KATO3 cells, 72 hours
In short: as §1

YCC2 = YCC2 cells, 72 hours
In short: as §1

SNU1750 = settings: 72 hours
In short: as §1

MKN45 = settings: 72 hours
In short: as §2

NCC24 = NCC24 cells, 72 hours
In short: as §1

SNU668 = settings: 72 hours
In short: as §1

SNU484 = settings: 72 hours
In short: as §1

FU97 = tested on: FU97; parameters: Average Area Under the Viability Curve (AUC), AUC norm value: scale not given here; settings: FU97 cells, 72 hours
In short: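 Trapezoidal AUC of a 12-point, DMSO-normalized dose-response curve. Luminescent viability was measured after 72 h of exposure at 37° C to half-log serial dilutions (0.5% DMSO control), dosed 24 h after plating FU97 cells at 5×10^3 per well.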

C/C(=C\c1csc(C)n1)[C@@H]1C[C@@H]2O[C@@H]2CCC[C@H](C)[C@H](O)[C@@H](C)C(=O)C(C)(C)[C@@H](O)CC(=O)O1 [Epothilone A]
area under the viability curve (AUC), normalized (NCC19; 12-point dose-response): 0
area under the viability curve (AUC), normalized (SNU620; 12-point dose-response): −2.268
area under the viability curve (AUC), normalized (NCC20; 12-point dose-response): −0.5459
area under the viability curve (AUC), normalized (SNU16; 12-point dose-response): −1.12
area under the viability curve (AUC), normalized (AGS; AGS cells, 12-point dose-response): −1.655
area under the viability curve (AUC), normalized (NCI_N87; 12-point dose-response): −1.51
area under the viability curve (AUC), normalized (MKN74; 12-point dose-response): 0.2913
area under the viability curve (AUC), normalized (SNU601; 12-point dose-response): −0.2006
area under the viability curve (AUC), normalized (MKN1; 12-point dose-response): −1.14
area under the viability curve (AUC), normalized (MKN28; 12-point dose-response): −1.4393
area under the viability curve (AUC), normalized (YCC11; YCC11 cells, 12-point dose-response): −1.2702
area under the viability curve (AUC), normalized (SK4; SK4 cells, 12-point dose-response): −0.9541
area under the viability curve (AUC), normalized (SNU638; 12-point dose-response): 0.3118
area under the viability curve (AUC), normalized (YCC3; 12-point dose-response): 2.8742
area under the viability curve (AUC), normalized (SNU216; SNU216 cells, 12-point dose-response): 2.403
area under the viability curve (AUC), normalized (SNU1967; 12-point dose-response): 0.6477
area under the viability curve (AUC), normalized (NCC59; 12-point dose-response): 3.583
area under the viability curve (AUC), normalized (SNU1; 12-point dose-response): −1.75
area under the viability curve (AUC), normalized (OCUM1; 12-point dose-response): 1.699
area under the viability curve (AUC), normalized (SNU719; 12-point dose-response): 4.484
area under the viability curve (AUC), normalized (Hs746T; Hs746T cells, 12-point dose-response): 1.217
area under the viability curve (AUC), normalized (KATO3; 12-point dose-response): 4.761
area under the viability curve (AUC), normalized (YCC2; 12-point dose-response): 0.1784
area under the viability curve (AUC), normalized (SNU1750; SNU1750 cells, 12-point dose-response): 1.039
area under the viability curve (AUC), normalized (MKN45; MKN45 cells, 12-point dose-response): 0.6604
area under the viability curve (AUC), normalized (NCC24; 12-point dose-response): −1.8431
area under the viability curve (AUC), normalized (SNU668; SNU668 cells, 12-point dose-response): −0.2909
area under the viability curve (AUC), normalized (SNU484; SNU484 cells, 12-point dose-response): −0.4364
area under the viability curve (AUC), normalized (FU97; 12-point dose-response): 0.9454

CC[C@]1(O)C[C@@H]2CN(CCc3c([nH]c4ccccc34)[C@@](C(=O)OC)(c3cc4c(cc3OC)N(C)[C@H]3[C@@](O)(C(=O)OC)[C@H](OC(C)=O)[C@]5(CC)C=CCN6CC[C@]43[C@@H]65)C2)C1 [Vinblastine]
Average Area Under the Viability Curve (AUC), AUC norm value (NCC19): 2.905
Average Area Under the Viability Curve (AUC), AUC norm value (SNU620): −0.4909
Average Area Under the Viability Curve (AUC), AUC norm value (NCC20): −1.614
Average Area Under the Viability Curve (AUC), AUC norm value (SNU16): −1.3
Average Area Under the Viability Curve (AUC), AUC norm value (AGS; AGS cells (non-SEM subtype)): −1.129
Average Area Under the Viability Curve (AUC), AUC norm value (NCI_N87): −0.1721
Average Area Under the Viability Curve (AUC), AUC norm value (MKN74): 0.6639
Average Area Under the Viability Curve (AUC), AUC norm value (SNU601): 0
Average Area Under the Viability Curve (AUC), AUC norm value (MKN1): −0.9285
Average Area Under the Viability Curve (AUC), AUC norm value (MKN28): −0.818
Average Area Under the Viability Curve (AUC), AUC norm value (YCC11; YCC11 cells (SEM subtype)): −0.6159
Average Area Under the Viability Curve (AUC), AUC norm value (SK4; SK4 cells (SEM subtype)): −1.0813
Average Area Under the Viability Curve (AUC), AUC norm value (SNU638): 0.2652
Average Area Under the Viability Curve (AUC), AUC norm value (YCC3): 4.54
Average Area Under the Viability Curve (AUC), AUC norm value (SNU216; SNU216 cells (non-SEM subtype)): 2.539
Average Area Under the Viability Curve (AUC), AUC norm value (SNU1967): −0.9411
Average Area Under the Viability Curve (AUC), AUC norm value (NCC59): 2.833
Average Area Under the Viability Curve (AUC), AUC norm value (SNU1): −0.3949
Average Area Under the Viability Curve (AUC), AUC norm value (OCUM1): 2.514
Average Area Under the Viability Curve (AUC), AUC norm value (SNU719): 4.162
Average Area Under the Viability Curve (AUC), AUC norm value (Hs746T; Hs746T cells (SEM subtype)): 1.1779
Average Area Under the Viability Curve (AUC), AUC norm value (KATO3): 4.096
Average Area Under the Viability Curve (AUC), AUC norm value (YCC2): 2.06
Average Area Under the Viability Curve (AUC), AUC norm value (SNU1750; SNU1750 cells (SEM subtype)): 0.6497
Average Area Under the Viability Curve (AUC), AUC norm value (MKN45; MKN45 cells (non-SEM subtype)): 1.844
Average Area Under the Viability Curve (AUC), AUC norm value (NCC24): −0.9438
Average Area Under the Viability Curve (AUC), AUC norm value (SNU668; SNU668 cells (SEM subtype)): −1.037
Average Area Under the Viability Curve (AUC), AUC norm value (SNU484; SNU484 cells (SEM subtype)): −1.194
Average Area Under the Viability Curve (AUC), AUC norm value (FU97): 0.3772
